Reference: patent publication US20110105565A1, “WATER SOLUBLE SMALL MOLECULE INHIBITORS OF THE CYSTIC FIBROSIS TRANSMEMBRANE CONDUCTANCE REGULATOR” (THE REGENTS OF THE UNIVERSITY OF CALIFORNIA, priority 2008, published 2011)
Where two headings read alike, the source gives them in different places.

Legend:
[1] = tested on: MDCK cells; assay: MDCK cell cyst model of polycystic kidney disease; format: cell-based, Canine; settings: for effect on MDCK cyst enlargement (in words): 1 μM
Description: An MDCK cell model of polycystic kidney disease was used to screen CFTR inhibitors of the thiazolidinone and glycine hydrazide classes for reducing cyst formation and expansion. […] Culture of MDCK cells in three-dimensional collagen gels produces a polarized, single-layer, thinned epithelium surrounding a fluid-filled space, apical […] microvilli, a solitary cilium, and apical tight junctions (see, e.g., McAteer et al., Scan Elect Microsc (Pt 3): 1135-1150, 1986; McAteer et al., Scanning Microsc 2: 1739-1763, 1988; and Taide et al., Eur J Clin Invest 26: 506-513, 1996).
Type I MDCK cells (ATCC No. CCL-34) were cultured at 37° C. in a humidified 95% air/5% CO2 atmosphere in a 1:1 mixture of Dulbecco's modified Eagle's medium (DMEM) and Ham's F-12 nutrient medium supplemented with 10% fetal bovine serum (Hyclone), 100 U/mL penicillin and 100 μg/mL streptomycin. To generate cysts, four hundred MDCK cells were suspended in 0.4 ml of ice-cold Minimum Essential Medium containing 2.9 mg/mL collagen (PuRECOL, Inamed Biomaterials, Fremont Calif.), 10 mM HEPES, 27 mM NaHCO3, 100 U/mL penicillin and 100 μg/mL streptomycin (pH 7.4). The cell suspension was plated onto 24-well plates. After gelation, 1.5 mL of MDCK cell medium containing 10 μM forskolin was added to each well and plates were maintained at 37° C. in a 5% CO2 humidified atmosphere.
The compound structures together with their approximate CFTR inhibition potencies (expressed as IC50 values) are provided in FIGS. 3 and 4. Indicated IC50 values for T01-07, T10, T12-14 were reported by Ma et al. (J Clin Invest 110: 1651-1658 (2002)). IC50 values for T08, T11, and T16 were determined by short-circuit analysis performed according to methods described herein. Indicated IC50 values for G01-05, G8-16 were reported by Sonawane et al. (FASEB J. 20: 130-132 (2006); Sonawane et al., Gastroenterology 132:1234-44 (2007)). IC50 values for G06 and G07 were determined by short-circuit current analysis performed according to methods described herein.
Medium containing forskolin and test compounds was changed every 12 h. At day 6, cysts (with diameters >50 μm) and non-cyst cell colonies were counted by phase-contrast light microscopy at 20× magnification (546 nm monochromatic illumination) using a Nikon TE 2000-S inverted microscope. In some experiments, compounds were added to medium in the continued presence of forskolin from day 4 after seeding and the medium containing forskolin and compounds was changed every 12 h for 8 days. Micrographs showing the same cysts in collagen gels (identified by markings on plates) were obtained every 2 days. For determination of cyst growth, cyst diameters were measured using Image J software. At least 10 cysts/well and 3 wells/group were measured for each condition.

[2] = tested on: MDCK cells; assay: MDCK cell apoptosis, in situ cell death detection kit; format: cell-based, Canine; settings: 10 μM, 72 h
Method: Apoptosis was measured using the in situ cell death detection kit (ROCHE Diagnostics, Indianapolis, Ind.). MDCK cells were seeded on 8-chamber polystyrene tissue culture-treated glass slides and incubated with compounds T08 and G07 for 72 h at 5, 10 or 20 μM. The assay was performed according to manufacturer's instructions. Five microscopic fields were analyzed per condition. The apoptosis index was calculated as the percentage of nucleus-stained cells.

[3] = tested on: Pkd1^flox/−; Ksp-Cre mice; assay: Pkd1flox/-;Ksp-Cre mouse model of autosomal dominant polycystic kidney disease; format: in vivo; settings: for kidney weight in Pkd1flox/-;Ksp-Cre mice (in words): 3 days treatment, vs vehicle-treated; for total numbers of cysts (of >50 μm diameter) per kidney: H&E sections, control 797±69; for total numbers of cysts (of >50 μm diameter) per kidney / serum creatinine and urea (in words): Pkd1flox/-;Ksp-Cre mice; for serum creatinine and urea (in words): vs vehicle control, age 5 and 9 days
Description: An in vivo model of kidney disease was employed to further explore the ability of CFTR inhibitors to reduce cyst formation in a vascular, perfused cellular environment. Pkd1^flox/−; Ksp-Cre mice were employed for this model, since these kidney-selective Pkd1 knockout mice manifest a fulminant course, with development of large cysts and renal failure in first 2 weeks of life, and represent a postnatal model of ADPKD. Pkd1 knockout mice normally die within 20 days. The Pkd1^flox/−; Ksp-Cre model is suitable, inter alia, for evaluating the efficacy of CFTR inhibitors on retarding the growth of cysts in the distal segments of the nephron, including medullary thick ascending limbs of the loops of Henle, distal convoluted tubule and collecting ducts.
Pkd1^flox mice and Ksp-Cre transgenic mice in a C57BL/6 background were generated as described (see, e.g., Shibazaki et al., J Am Soc Nephrol 13: 10-11, 2004; and Shao et al., J Am Soc Nephrol 13: 1837-1846, 2002). Ksp-Cre mice express Cre recombinase under the control of the Ksp-cadherin promoter (Shao et al.). Kidney-specific Pdk1 knock-out mice (Pkd1^flox/−; Ksp-Cre mice) were generated by cross-breeding Pkd1^flox/flox mice with Pkd1^+/−:Ksp-Cre mice. Neonatal mice (age 1 day) were genotyped by genomic PCR.
CFTR inhibitors (5-10 mg/kg/day) or saline DMSO vehicle control (0.05 mL/injection) were administrated by subcutaneous injection on the backs of neonatal mice four times a day for 3 or 7 days using a 1 cc insulin syringe, beginning at age 2 days (11 mice per group). Pkd1^flox/+; Ksp-Cre or Pkd1^flox/+ mice from the same litter were used as controls. During the treatment period, control and Pkd1^flox/−; Ksp-Cre mice, with or without CFTR inhibitor treatment, were indistinguishable in their activity and behavior. Body weight was measured at day 5 (3 days after treatment), at which time there was no difference in body weight in any of the mouse groups. Blood and urine samples were collected for measurements of CFTR inhibitor concentration and renal function. Kidneys were removed and weighed, and fixed for histological examination or homogenized for determination of CFTR inhibitor content.
To measure serum creatinine and urea (indicators of renal function), serum was obtained from whole blood by centrifugation at 5000×g for 5 min. Serum creatinine concentration was measured using a colorimetric assay kit (Cayman Chemical, Ann Arbor Mich.) following manufacturer's instructions. Urea concentration was measured using the colorimetric QUANTICHROM Urea Assay Kit (BioAssay Systems, Hayward, Calif.). Creatinine and urea concentrations were determined from optical densities using calibration standards.
For histological examination, kidneys were fixed with Bouin's fixative and embedded in paraffin. Three-μm thick sections were cut serially every 200 μm and stained with hematoxylin and eosin (H&E). Sections were imaged using a LEICA inverted epifluorescence microscope (DM 4000B) equipped with 2.5× objective lens and color CCD camera (Spot, model RT KE; Diagnostic Instruments Inc.). Cyst sizes in micrographs of kidney were determined using MATLAB 7.0 software.

[4] = molecular target: human wildtype CFTR (Homo sapiens, UniProt P13569); assay: Short-circuit current measurements, apical chloride current in FRT cells; format: cell-based; parameters: expressed in transfected cells; host or cells: FRT (Fisher rat thyroid) cells
Sequence of human wildtype CFTR (P13569 whole entry): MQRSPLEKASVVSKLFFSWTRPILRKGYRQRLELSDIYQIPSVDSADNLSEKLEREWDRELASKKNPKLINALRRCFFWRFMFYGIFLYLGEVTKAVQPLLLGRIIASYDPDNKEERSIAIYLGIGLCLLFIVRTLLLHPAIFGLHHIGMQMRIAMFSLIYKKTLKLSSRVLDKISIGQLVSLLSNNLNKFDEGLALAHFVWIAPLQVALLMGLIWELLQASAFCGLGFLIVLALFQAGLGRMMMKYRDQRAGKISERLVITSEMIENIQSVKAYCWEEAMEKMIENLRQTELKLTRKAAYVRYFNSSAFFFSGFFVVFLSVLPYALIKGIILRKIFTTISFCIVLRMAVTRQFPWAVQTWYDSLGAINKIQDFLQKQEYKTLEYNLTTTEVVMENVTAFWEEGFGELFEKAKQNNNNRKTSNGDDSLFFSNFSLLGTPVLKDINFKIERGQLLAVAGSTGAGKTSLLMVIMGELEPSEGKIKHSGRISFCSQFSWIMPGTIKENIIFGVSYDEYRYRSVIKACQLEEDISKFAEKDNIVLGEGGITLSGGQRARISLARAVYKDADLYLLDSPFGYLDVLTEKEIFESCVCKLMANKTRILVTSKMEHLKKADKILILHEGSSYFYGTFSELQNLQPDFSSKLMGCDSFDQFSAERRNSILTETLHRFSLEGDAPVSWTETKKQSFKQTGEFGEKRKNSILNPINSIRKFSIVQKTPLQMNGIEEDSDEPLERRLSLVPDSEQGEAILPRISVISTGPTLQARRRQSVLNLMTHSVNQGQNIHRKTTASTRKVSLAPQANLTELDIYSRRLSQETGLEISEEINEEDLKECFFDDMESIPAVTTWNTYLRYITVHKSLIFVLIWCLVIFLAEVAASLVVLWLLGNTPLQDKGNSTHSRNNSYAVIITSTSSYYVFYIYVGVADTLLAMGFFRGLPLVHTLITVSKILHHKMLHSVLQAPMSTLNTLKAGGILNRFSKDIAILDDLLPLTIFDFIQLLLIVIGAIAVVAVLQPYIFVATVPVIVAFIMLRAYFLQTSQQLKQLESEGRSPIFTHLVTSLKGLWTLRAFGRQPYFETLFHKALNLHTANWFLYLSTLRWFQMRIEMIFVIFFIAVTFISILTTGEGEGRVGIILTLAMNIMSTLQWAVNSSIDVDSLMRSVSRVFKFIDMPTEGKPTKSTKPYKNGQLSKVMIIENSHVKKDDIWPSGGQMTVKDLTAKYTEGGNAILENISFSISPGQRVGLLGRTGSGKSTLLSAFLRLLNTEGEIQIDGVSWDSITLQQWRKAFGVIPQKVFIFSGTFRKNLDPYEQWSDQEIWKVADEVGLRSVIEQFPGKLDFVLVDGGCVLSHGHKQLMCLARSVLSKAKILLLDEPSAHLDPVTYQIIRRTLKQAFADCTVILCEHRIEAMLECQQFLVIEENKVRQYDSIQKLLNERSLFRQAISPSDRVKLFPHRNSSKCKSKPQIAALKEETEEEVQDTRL
Method: Short-circuit current measurements. FRT cells (stably expressing human wildtype CFTR) were cultured on [sequence] filters with 1 cm^2 surface area (Corning-Costar) to resistance >1,000 Ω·cm^2 as described (see, e.g., Ma et al., J. Clin. Invest. 110:1651-1658 ((2002)); Sonawane et al., FASEB J. 20:130-132 (2006)). Filters were mounted in an Easymount Chamber System (Physiologic Instruments, San Diego). For apical current measurements, the basolateral hemichamber contained (in mM): 130 NaCl, 2.7 KCl, 1.5 KH2PO4, 1 CaCl2, 0.5 MgCl2, 10 Na-HEPES, 10 glucose (pH 7.3). The basolateral membrane was permeabilized with amphotericin B (250 μg/ml) for 30 min. In the apical solution 65 mM NaCl was replaced by sodium gluconate, and CaCl2 was increased to 2 mM. Solutions were bubbled with 95% O2/5% CO2 and maintained at 37° C. Current was recorded using a DVC-1000 voltage-clamp (World Precision Instruments) using Ag/AgCl electrodes and 1 M KCl agar bridges.
CFTR was stimulated by cAMP agonist forskolin and increasing concentration of test compounds was added.

[5] = values in text, forskolin-stimulated CFTR, read-out: IC50 (short-circuit current)

Molecule	effect on MDCK cyst enlargement (in words) [1]	MDCK cell apoptosis (in words) [2]	kidney weight in Pkd1flox/-;Ksp-Cre mice (in words) [3]	total numbers of cysts (of >50 μm diameter) per kidney [3]	serum creatinine and urea (in words) [3]	IC50 [4, 5] [nM]	IC50 ([4]; Table 3, inhibition potency, read-out: IC50) [nM]	inhibition kinetics (in words) ([4]; compared with CFTRinh-172 or Oxo-172, listed as Tetrazolo-172)	inhibition of CFTR in short-circuit current analysis (in words) ([4]; increasing concentration, forskolin-stimulated)	effect on MDCK cyst enlargement/formation (in words) ([1]; 10 μM)	inhibition at 10 µM ([1]; Canis lupus familiaris, MDCK, 10 μM, forskolin 10 μM, cyst diameter, read-out: inhibition of cyst growth) [%]
N-2-naphthalenyl-2-hydroxyethyl-[(3,5-dibromo-2,4-dihydroxyphenyl)methylene]phenylglycinehydrazide [Compound G07]	strongly inhibited cyst enlargement	did not cause MDCK cell apoptosis	reduced kidney weight significantly	316±45	significantly reduced						
O=C1/C(=C/c2ccc(-c3nn[nH]n3)cc2)SC(=S)N1c1cccc(C(F)(F)F)c1 [Compound 6, (Z)-5-(4-(1H-tetrazol-5-yl)benzylidene)-2-thioxo-3-(3-(trifluoromethyl)phenyl)thiazolidin-4-one]		did not cause MDCK cell apoptosis				500 to 1000					
O=C1/C(=C/c2ccc(-c3nnn[nH]3)cc2)SC(=S)N1c1cccc(C(F)(F)F)c1 [Compound 6, (Z)-5-(4-(1H-tetrazol-5-yl)benzylidene)-2-thioxo-3-(3-(trifluoromethyl)phenyl)thiazolidin-4-one]	strongly inhibited cyst enlargement		reduced kidney weight significantly	457±32	significantly reduced	800	760 ± 200	slower inhibition kinetics	dose dependant inhibition	slowed cyst enlargement	> 70
